IC50 data for 62 compounds are collected here from US20060252807A1, “Novel ortho-terphenyl inhibitors of p38 kinase and methods of treating inflammatory disorders” (Kalypsys, Inc., priority 2005, published 2006).

Molecules are shown by their SMILES.

T1 sequence (Q16539 whole entry): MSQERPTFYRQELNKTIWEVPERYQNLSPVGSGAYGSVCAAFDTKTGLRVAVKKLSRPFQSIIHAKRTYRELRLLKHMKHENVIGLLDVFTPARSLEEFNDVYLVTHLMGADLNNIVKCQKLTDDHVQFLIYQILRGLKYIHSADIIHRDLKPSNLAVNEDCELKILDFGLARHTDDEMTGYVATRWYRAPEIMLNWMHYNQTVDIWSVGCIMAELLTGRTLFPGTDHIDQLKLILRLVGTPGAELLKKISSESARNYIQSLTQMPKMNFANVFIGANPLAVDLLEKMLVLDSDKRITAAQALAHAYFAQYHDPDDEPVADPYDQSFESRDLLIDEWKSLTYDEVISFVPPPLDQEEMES

One assay addresses T1, active p38 alpha enzyme (Upstate Biotechnology) (Homo sapiens, UniProt Q16539).
T1 construct: purchased Upstate Biotechnology
Nature of the assay: p38α biochemical assay (ATP turnover, luminescent detection, Cambrex PKlight). The settings on record: p38α biochemical assay, Table 1 Biological Activity. The essentials: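 Active human p38α was incubated with full-length MapkapK2 protein as substrate and 1.4 uM ATP (final) for 2 hours at 30C. Buffer: 200 mM Tris, 100 mM MgCl2, 1.5 mM EGTA, 4 mM CaCl2, 20 mM MOPS, 1 mM EDTA, 1% glycerol, 0.1% β-mercaptoethanol, 1 mg/ml BSA. Total ATP turnover read by luminescence.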
One may read the IC50 as the midpoint of a concentration-inhibition curve. Low values mean inhibition by little substance, high ones a need for much substance. As to `CC(C)NC(=O)c1csc(-c2c(-c3ccc(F)cc3)noc2CNC(=O)c2cccc(Br)c2)n1` [Example 743], the half-inhibitory concentration (IC50) is more than 1000 nM. Same read-out and setting: the same measure for `CC(C)NC(=O)c1csc(-c2oc(CN3CCN(C(=O)CCc4ccccc4Br)CC3)nc2-c2ccc(F)cc2)n1` [Example 546]: more than 1000 nM; for `COc1cc(C(=O)NCc2onc(-c3ccc(F)cc3)c2-c2nc(C(=O)NC(C)C)cs2)cc(OC)c1O` [Example 741]: more than 1000 nM. On the same count and under the same terms, the same measure for `CC(C)NC(=O)c1csc(-c2oc(CNC(=O)COc3ccccc3C=O)nc2-c2ccc(F)cc2)n1` [Example 212]: more than 1000 nM. `CCN(CC)c1ccc(C(=O)N2CCN(Cc3nc(-c4ccc(F)cc4)c(-c4nc(C(=O)NC(C)C)cs4)o3)CC2)cc1` [Example 497] had an IC50 not above 1000 nM. `COc1ccc(C(=O)NCc2nc(-c3ccc(F)cc3)c(-c3nc(C(=O)NC(C)C)cs3)o2)c(OC)c1OC` [Example 286] gave an IC50 of more than 1000 nM. On the same count and under the same terms, the same measure for `CC(C)NC(=O)c1csc(-c2oc(CN3CCN(C(=O)c4cccc(Br)c4)CC3)nc2-c2ccc(F)cc2)n1` [Example 505]: more than 1000 nM; for `CC(C)NC(=O)c1csc(-c2oc(CNC(=O)C(O)CCl)nc2-c2ccc(F)cc2)n1` (centres unmarked) [Example 115]: not above 1000 nM; for `COc1ccc(Br)c(C(=O)NCc2onc(-c3ccc(F)cc3)c2-c2nc(C(=O)NC(C)C)cs2)c1` [Example 791]: more than 1000 nM. The compound `CC(C)NC(=O)c1csc(-c2[nH]c(CN3CCOCC3)nc2-c2ccc(F)cc2)n1` [Example 80, 2-|5-(4-Fluoro-phenyl)-2-morpholin-4-ylmethyl-3H-imidazol-4-yl|-thiazole-4-carboxylic acid isopropylamide] displayed an IC50 not above 1000 nM. Compound `CC(C)NC(=O)c1csc(-c2oc(CNC(=O)c3ccc(F)cc3F)nc2-c2ccc(F)cc2)n1` [Example 159] came in with an IC50 not above 1000 nM. Same read-out and setting: the value for `CC(C)CC(NC(=O)OC(C)(C)C)C(=O)N1CCN(Cc2nc(-c3ccc(F)cc3)c(-c3nc(C(=O)NC(C)C)cs3)o2)CC1` (centres unmarked) [Example 566] was more than 1000 nM; that for `COc1ccc2cc(C(C)C(=O)N3CCN(Cc4nc(-c5ccc(F)cc5)c(-c5nc(C(=O)NC(C)C)cs5)o4)CC3)ccc2c1` (centres unmarked) [Example 550] was more than 1000 nM. Same read-out and setting: the same measure for `CC(C)NC(=O)c1csc(-c2oc(CN3CCN(C(=O)c4cnc(O)c(Cl)c4)CC3)nc2-c2ccc(F)cc2)n1` [Example 435]: not above 1000 nM. Same read-out and setting: the value for `CC(C)NC(=O)c1csc(-c2c(-c3ccc(F)cc3)noc2CN2CCNCC2)n1` [Example 28, 2-|3-(4-Fluoro-phenyl)-5-piperazin-1-ylmethyl-isoxazol-4-yl|-thiazole-4-carboxylic acid isopropylamide] was not above 1000 nM; that for `CC(C)NC(=O)c1csc(-c2oc(CNC(=O)Cc3ccc4c(c3)OCO4)nc2-c2ccc(F)cc2)n1` [Example 217] was more than 1000 nM. `CC(C)NC(=O)c1csc(-c2oc(CNC(=O)c3ccc(Cl)c(Br)c3)nc2-c2ccc(F)cc2)n1` [Example 321] showed an IC50 of more than 1000 nM.

As to `CC(C)NC(=O)c1csc(-c2oc(CNC(=O)c3ccc(F)cc3Cl)nc2-c2ccc(F)cc2)n1` [Example 199], the IC50 is not above 1000 nM. On the same count and under the same terms, the value for `Cc1nc(-c2ccc(F)cc2)c(-c2nc(C(=O)NCCO)cs2)s1` [Example 49, 4′-(4-Fluoro-phenyl)-2′-methyl-|2,5′|bithiazolyl-4-carboxylic acid (2-hydroxy-ethyl)-amide] was not above 1000 nM; that for `CC(C)NC(=O)c1csc(-c2oc(CN3CCN(C(=O)c4cccc(Br)n4)CC3)nc2-c2ccc(F)cc2)n1` [Example 513] was more than 1000 nM.

The assay is the same for the next values; noted with them: p38α kinase; Table 1 Biological Activity.
As to `CCN(C)C(=O)c1csc(-c2sc(C)nc2-c2ccc(F)cc2)n1` [Example 1835], the IC50 was more than 1000 nM. Take `O=C(NC1CCc2ccccc21)c1csc(-c2c(-c3ccc(F)cc3)n[nH]c2C2CCNCC2)n1` (centres unmarked) [Example 2089]: the IC50 was more than 1000 nM. Same read-out and setting: the same measure for `COc1ccc(OC)c(CCNC(=O)c2csc(-c3c(-c4ccc(F)cc4)n[nH]c3C3CCNCC3)n2)c1` [Example 2148]: more than 1000 nM; for `CC(C)NC(=O)c1csc(-c2c(-c3ccc(F)cc3)n[nH]c2C2CCN(C(=O)c3ccccc3)CC2)n1` [Example 825]: not above 1000 nM.

Regarding `Cc1nc(-c2ccc(F)cc2)c(-c2nc(C(=O)N(C)CCO)cs2)s1` [Example 1839], the IC50 is more than 1000 nM. On the same count and under the same terms, the value for `CC(C)CC(C)NCc1nc(-c2ccc(F)cc2)c(-c2nc(C(=O)NC(C)C)cs2)o1` (centres unmarked) [Example 1080] was more than 1000 nM; that for `O=C(NCCc1c[nH]c2ccccc12)c1csc(-c2c(-c3ccc(F)cc3)n[nH]c2C2CCNCC2)n1` [Example 2134] was more than 1000 nM; that for `Cc1ccc(CNCc2onc(-c3ccc(F)cc3)c2-c2nc(C(=O)NC(C)C)cs2)cc1` [Example 1432] was more than 1000 nM. The same measure, in the same setting: the same measure for `CC(C)NC(=O)c1csc(-c2c(-c3ccc(F)cc3)n[nH]c2C2CCN(C(=O)c3ccc(C(C)(C)C)cc3)CC2)n1` [Example 923]: not above 1000 nM. On the same count and under the same terms, the value for `CC(C)NC(=O)c1csc(-c2c(-c3ccc(F)cc3)n[nH]c2C2CCN(C(=O)c3ccccc3O)CC2)n1` [Example 839] was more than 1000 nM; that for `CC(C)NC(=O)c1csc(-c2c(-c3ccc(F)cc3)noc2CNCC(C)c2ccccc2)n1` (centres unmarked) [Example 1448] was more than 1000 nM. Take `CC(C)NC(=O)c1csc(-c2oc(CNCc3cccc(F)c3)nc2-c2ccc(F)cc2)n1` [Example 1103]: the IC50 is more than 1000 nM. The compound `O=C(NCc1cccc(F)c1)c1csc(-c2c(-c3ccc(F)cc3)n[nH]c2C2CCNCC2)n1` [Example 2080] showed a concentration for half-maximal inhibition (IC50) of more than 1000 nM. On the same count and under the same terms, the same measure for `CC1=CCC(CCNCc2nc(-c3ccc(F)cc3)c(-c3nc(C(=O)NC(C)C)cs3)o2)C=C1` (centres unmarked) [Example 1113]: more than 1000 nM; for `CCOc1ccccc1CNC(=O)c1csc(-c2c(-c3ccc(F)cc3)n[nH]c2C2CCNCC2)n1` [Example 2124]: more than 1000 nM; for `CC(C)NC(=O)c1csc(-c2c(-c3ccc(F)cc3)noc2CN2CCCN(Cc3ccccc3)CC2)n1` [Example 1576]: more than 1000 nM.

Turning to `Cc1nc(-c2ccc(F)cc2)c(-c2nc(C(=O)NCCN3CCOCC3)cs2)s1` [Example 1765], the IC50 was more than 1000 nM. The same measure, in the same setting: the same measure for `CC(C)NC(=O)c1csc(-c2c(-c3ccc(F)cc3)noc2CNC2CCCC2)n1` [Example 1397]: more than 1000 nM; for `CC(C)NC(=O)c1csc(-c2c(-c3ccc(F)cc3)n[nH]c2C2CCN(C(=O)c3cn(C)cn3)CC2)n1` [Example 831]: more than 1000 nM. `CC(=O)c1cccc(NCc2nc(-c3ccc(F)cc3)c(-c3nc(C(=O)NC(C)C)cs3)o2)c1` [Example 1335] came in with an IC50 of more than 1000 nM. On the same count and under the same terms, the same measure for `CC(C)NC(=O)c1csc(-c2c(-c3ccc(F)cc3)noc2CNC(CO)C(C)C)n1` (centres unmarked) [Example 1414]: more than 1000 nM; for `CC(C)NC(=O)c1csc(-c2c(-c3ccc(F)cc3)noc2CN2CCN(Cc3ccc4c(c3)OCO4)CC2)n1` [Example 1620]: more than 1000 nM. The same measure, in the same setting: the same measure for `CC(C)NC(=O)c1csc(-c2c(-c3ccc(F)cc3)n[nH]c2C2CCN(C(=O)C3CCCN3C(=O)OCc3ccccc3)CC2)n1` (centres unmarked) [Example 1041]: more than 1000 nM; for `CC(C)NC(=O)c1csc(-c2c(-c3ccc(F)cc3)noc2CNCCN2CCOCC2)n1` [Example 1441]: more than 1000 nM. `CC(C)NC(=O)c1csc(-c2oc(CN(CCc3ccccc3)Cc3ccccc3)nc2-c2ccc(F)cc2)n1` [Example 1286] displayed a concentration for half-maximal inhibition (IC50) of more than 1000 nM.

`CC(C)NC(=O)c1csc(-c2oc(CNc3ccc4c(c3)CCC4)nc2-c2ccc(F)cc2)n1` [Example 1333] gave an IC50 of more than 1000 nM. Same read-out and setting: the value for `COc1cccc(CCNCc2nc(-c3ccc(F)cc3)c(-c3nc(C(=O)NC(C)C)cs3)o2)c1` [Example 1143] was more than 1000 nM. `Cc1nc(-c2ccc(F)cc2)c(-c2nc(C(=O)NCCOc3ccccc3)cs2)s1` [Example 1778]: the IC50 is not above 1000 nM.

With `O=C(NCCc1ccc(F)cc1)c1csc(-c2c(-c3ccc(F)cc3)n[nH]c2C2CCNCC2)n1` [Example 2104], the IC50 is more than 1000 nM. Still for that read-out and setting: the value for `CC(C)NC(=O)c1csc(-c2oc(CN(CCC#N)Cc3cccnc3)nc2-c2ccc(F)cc2)n1` [Example 1240] was more than 1000 nM.

On to `CC(C)NC(=O)c1csc(-c2c(-c3ccc(F)cc3)noc2CNC(=O)C(Cc2ccccc2)NC(=O)OC(C)(C)C)n1` (centres unmarked) [Example 806], for which the IC50 is more than 1000 nM. Still for that read-out and setting: the same measure for `O=C(N[C@H](CO)Cc1ccccc1)c1csc(-c2c(-c3ccc(F)cc3)n[nH]c2C2CCNCC2)n1` [Example 2121]: more than 1000 nM. On the same count and under the same terms, the value for `CC(C)NC(=O)c1csc(-c2oc(CNN3CCN(C)CC3)nc2-c2ccc(F)cc2)n1` [Example 1094] was more than 1000 nM; that for `CC(C)NC(=O)c1csc(-c2c(-c3ccc(F)cc3)n[nH]c2C2CCN(C(=O)c3ccccc3C(=O)c3ccc(F)cc3)CC2)n1` [Example 1037] was more than 1000 nM. On the same count and under the same terms, the same measure for `CC(C)NC(=O)c1csc(-c2oc(CN(C)C)nc2-c2ccc(F)cc2)n1` [Example 1182]: not above 1000 nM; for `Cc1nc(-c2ccc(F)cc2)c(-c2nc(C(=O)N3CCCC(c4ccc(C(F)(F)F)cc4)C3)cs2)s1` (centres unmarked) [Example 1954]: more than 1000 nM. In turn, `CC(C)NC(=O)c1csc(-c2c(-c3ccc(F)cc3)noc2CNCc2cccc(Cl)c2)n1` [Example 1461] gave an IC50 of more than 1000 nM. The same measure, in the same setting: the value for `CCN(Cc1ccccc1)Cc1onc(-c2ccc(F)cc2)c1-c1nc(C(=O)NC(C)C)cs1` [Example 1550] was more than 1000 nM. `Cc1nc(-c2ccc(F)cc2)c(-c2nc(C(=O)NCCCNC(=O)OC(C)(C)C)cs2)s1` [Example 1817]: the concentration for half-maximal inhibition (IC50) is not above 1000 nM. Same read-out and setting: the same measure for `CC(C)NC(=O)c1csc(-c2c(-c3ccc(F)cc3)n[nH]c2C2CCN(C(=O)c3ccc(Cl)nc3)CC2)n1` [Example 866]: more than 1000 nM; for `O=C(NC1CCCCCC1)c1csc(-c2c(-c3ccc(F)cc3)n[nH]c2C2CCNCC2)n1` [Example 2068]: more than 1000 nM; for `CC(C)CCCC(C)NCc1nc(-c2ccc(F)cc2)c(-c2nc(C(=O)NC(C)C)cs2)o1` (centres unmarked) [Example 1109]: more than 1000 nM.
